How the values were obtained:
Settings in all cases: human; call rule not given here
Hepatotoxicity [1] = assay: FDA HLAED, gamma-glutamyl transferase (GGT) increase
Hepatotoxicity [2] = assay: FDA HLAED, serum glutamic oxaloacetic transaminase (SGOT) increase
Hepatotoxicity [3] = assay: FDA HLAED, alkaline phosphatase increase
Hepatotoxicity [4] = assay: FDA HLAED, serum glutamic pyruvic transaminase (SGPT) increase
Hepatotoxicity [5] = assay: FDA HLAED, lactate dehydrogenase (LDH) increase
Hepatotoxicity [6] = assay: FDA HLAED, liver enzyme composite activity
Throughout, for GGT Increase - Index Value: reference of the scale not given here.
Throughout, for LDH Increase - Index Value: reference of the scale not given here.

Structure (SMILES) | GGT Increase - Activity Score (Hepatotoxicity [1]) | GGT Increase - Index Value (Hepatotoxicity [1]) | GGT Increase - Number of Reports (Hepatotoxicity [1]) | SGOT Increase - Activity Score (Hepatotoxicity [2]) | SGOT Increase - Index Value (Hepatotoxicity [2]) | SGOT Increase - Number of Reports (Hepatotoxicity [2]) | Alkaline Phosphatase Increase - Activity Score (Hepatotoxicity [3]) | Alkaline Phosphatase Increase - Index Value (Hepatotoxicity [3]) | Alkaline Phosphatase Increase - Number of Reports (Hepatotoxicity [3]) | SGPT Increase - Activity Score (Hepatotoxicity [4]) | SGPT Increase - Index Value (Hepatotoxicity [4]) | SGPT Increase - Number of Reports (Hepatotoxicity [4]) | LDH Increase - Activity Score (Hepatotoxicity [5]) | LDH Increase - Index Value (Hepatotoxicity [5]) | LDH Increase - Number of Reports (Hepatotoxicity [5]) | Composite Activity - Active (Hepatotoxicity [6]) | Composite Activity - Marginal (Hepatotoxicity [6]) | Composite Activity - Score (Hepatotoxicity [6]) | further results
CCCC(=O)Nc1ccc(OCC(O)CNC(C)C)c(C(C)=O)c1 (configuration not stated) [ACEBUTOLOL] | Inactive | 0 | < 4 | Inactive | 2.6 | >= 4 | Marginally Active | 3.9 | >= 4 | Marginally Active | 3.3 | >= 4 | Marginally Active | 3.3 | >= 4 | 0 | 3 | Inactive | –
CC(=O)Nc1ccc(O)cc1 [ACETAMINOPHEN] | Marginally Active | No Shipping Units | >= 4 | Active | No Shipping Units | >= 4 | Marginally Active | No Shipping Units | >= 4 | Active | No Shipping Units | >= 4 | Marginally Active | No Shipping Units | >= 4 | 2 | 3 | Active | –
CC(=O)NO [ACETOHYDROXAMIC ACID] | Inactive | 0 | < 4 | Inactive | 0 | < 4 | Inactive | 0 | < 4 | Inactive | 0 | < 4 | Inactive | 0 | < 4 | 0 | 0 | Inactive | –
Nc1nc2c(ncn2COCCO)c(=O)[nH]1 [ACYCLOVIR] | Inactive | 0 | < 4 | Inactive | 0.9 | >= 4 | Inactive | 0.9 | >= 4 | Inactive | 0.1 | < 4 | Inactive | 0.1 | < 4 | 0 | 0 | Inactive | –
Nc1ncnc2c1ncn2[C@@H]1O[C@H](CO)[C@@H](O)[C@H]1O [ADENOSINE] | Inactive | 0 | < 4 | Inactive | 0 | < 4 | Inactive | 0 | < 4 | Inactive | 0 | < 4 | Inactive | 0 | < 4 | 0 | 0 | Inactive | –
CC(C)(C)NCC(O)c1ccc(O)c(CO)c1 (configuration not stated) [ALBUTEROL] | Inactive | 0 | < 4 | Inactive | 0.1 | < 4 | Inactive | 0 | < 4 | Inactive | 0 | < 4 | Inactive | 0 | < 4 | – | – | – | Composite Activity - Active (Hepatotoxicity [6]; Liver): 0; Composite Activity - Marginal (Hepatotoxicity [6]; Liver): 0; Composite Activity - Score (Hepatotoxicity [6]; Liver): Inactive
CCC(=O)OCC(=O)[C@@]1(OC(=O)CC)[C@H](C)C[C@H]2[C@H]3[C@H]([C@@H](O)C[C@@]21C)[C@@]1(C)C=CC(=O)C=C1C[C@H]3Cl [ALCLOMETASONE DIPROPIONATE] | Inactive | 0 | < 4 | Inactive | 0 | < 4 | Inactive | 0 | < 4 | Inactive | 0 | < 4 | Inactive | 0 | < 4 | 0 | 0 | Inactive | –
C[C@@H]1C[C@H]2[C@H]3[C@H]([C@@H](O)C[C@]2(C)[C@@]1(O)C(=O)CO)[C@@]1(C)C=CC(=O)C=C1C[C@H]3Cl [ALCLOMETASONE] | Inactive | 0 | < 4 | Inactive | 0 | < 4 | Inactive | 0 | < 4 | Inactive | 0 | < 4 | Inactive | 0 | < 4 | 0 | 0 | Inactive | –
NCCCC(O)(P(=O)(O)O)P(=O)(O)O [ALENDRONIC ACID] | Inactive | 0.8 | >= 4 | Inactive | 1.4 | >= 4 | Inactive | 2.5 | >= 4 | Inactive | 1.4 | >= 4 | Inactive | 1.5 | >= 4 | – | – | – | Composite Activity - Active (Hepatotoxicity [6]; Liver): 0; Composite Activity - Marginal (Hepatotoxicity [6]; Liver): 0; Composite Activity - Score (Hepatotoxicity [6]; Liver): Inactive

From ChEMBL document CHEMBL1697781, “Assessment of the health effects of chemicals in humans: II. Construction of an adverse effects database for QSAR modeling” (Curr Drug Discov Technol, 2004)
